From patent US6440389B1, “Fluorescent agents for real-time measurement of organ function” (The General Hospital Corporation, priority 2000, dated 2002) come the findings set out here.

The data set is described as follows: Fluorometric analysis, excitation and emission spectra. The format is physicochemical. The following applies: FIG. 4. As to the method: For the synthesis of a nile blue-DTPA conjugate, 0.1 g of DTPA dianhydride (ccDPTA) was dissolved in 6 ml of dimethyl sulfoxide (DMSO) in a round bottom flask. Ninety mg of nile blue were dissolved in DMSO and 36 μL of triethyl amine were added, turning the solution purple. The nile blue solution was added drop wise to the solution of ccDTPA while stirring. The solution turned blue. Thirty-eight μL of […] (TEA) were added to the final mixture, turning the solution purple. After mixing, the mixture was heated to 60° C. and stirred for 2 hours. The reaction mixture was then loaded onto a silica gel column and eluted with acetone:ethylacetate. The fractions corresponding to the nile blue-DTPA conjugate were pooled and evaporated, yielding a magenta colored oil. The oil was rechromatographed on a second silica gel column using acetone as eluant. The nile blue-DTPA conjugated fractions were pooled and rotate-evaporated to give a magenta colored oil. […]
The only group of chelating agents known to produce highly soluble and stable lanthanide chelates are the polyamino polyacetic acid analogs. […] The simplest initial approach was to study the fluorescence characteristics of the chelate between Eu and other already commercially available polyaminopoly bis (2-aminoethyl ether) acetic acids. […]

For the compound `CC[N+](CC)=c1ccc2nc3c(cc(N)c4ccccc43)oc-2c1` [nile blue], the emission fluorescence stood at 695 nm and the maximal excitation entry is given as “approximately 390 nm”.
